From patent US20160256480A1, “THERAPEUTIC COMPOSITION FOR WOUND HEALING” (priority 2015, published 2016)

Legend:
J774A.1 cells = assay: Incubation of J774A.1 mouse macrophages with beta-glucan, phase-contrast examination of cell health; type: cell-based
Procedure: (§1) J774A.1 cells are mouse monocyte/macrophage cells. These cells are adherent and upon death will detach from the surface fo the culture flasks or coverslips. Cells were grown to approximately 80% confluence in 24-well plates on 12 mm coverslips overnight. Cells were grown in a minimum essential medium with insulin (IMEMZO, Irvine Scientific, Santa Ana, Calif.) with 5% fetal bovine serum (FBS, Atlanta Biologicals, Norcross, Ga.). Beta-glucan was dissolved with MilliQ Ultrapure water. […] Beta-glucan was diluted with IMEMZO media and added to the cells for the duration of the incubation. Cells were examined daily and phase-contrast images taken at specific intervals to capture the health of the cells. All images were captured at 200× magnification.
The beta-glucan was purchased from Sigma-Aldrich (CAS Number 9051-97-2; MDL number MFCD00466918). Beta-glucan source was Euglena gracilis.

[1] = Dissolution of beta-glucan in MilliQ Ultrapure water; type: physicochemical
Procedure: as §1

Substance: beta-1,3-Glucan from Euglena gracilis [beta-glucan]
- effect on cell growth and proliferation (J774A.1 cells; 1 mg/ml beta-glucan over 48 hours): no adverse affect on the cell growth and proliferation
- increase in cell numbers (J774A.1 cells; 3 mg/ml beta-glucan, base media IMEMZO, 48 hours): increased in numbers at a rate that is typical in the base media
- visible pathological effects on cellular growth or survival (J774A.1 cells; 3 mg/ml beta-glucan, mouse macrophages, 48 hour culture period): did not pose any visible pathological effects on cellular growth or survival
- cell size and adherence (J774A.1 cells; 3 mg/ml beta-glucan, over the 48 hour culture period): did not decrease in size and remained adherent
- solubility in water [1]: only partially dissolved
